Data from patent US12595591B2, “Peptide libraries having enhanced subsequence diversity and methods for use thereof” (ROCHE […], INC., priority 2019, dated 2026).
No end group written: not given here.

Tests used:
biotin-labeled DsbA [1] = target: T1, biotin-labeled DsbA (Escherichia coli, UniProt P0AEG4); test: Peptide microarray binding of biotin-labeled DsbA, Cy5-streptavidin fluorescence detection; settings: fluorescent signal intensity measured by peptide microarray
T1 construct: purchased abcam
T1 sequence (P0AEG4 20-208): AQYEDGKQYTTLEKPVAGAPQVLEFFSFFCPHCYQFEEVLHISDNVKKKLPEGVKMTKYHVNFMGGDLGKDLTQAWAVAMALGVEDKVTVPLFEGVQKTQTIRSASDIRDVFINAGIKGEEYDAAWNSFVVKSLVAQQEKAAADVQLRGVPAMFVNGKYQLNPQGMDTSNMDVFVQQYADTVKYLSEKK
Excerpt: Briefly, the peptide array was synthesized by light-directed array synthesis in a Roche NimbleGen Maskless Array Synthesizer (MAS) using an amino-functionalized substrate as previously reported (Forsström, et al., “Proteome-wide Epitope Mapping of Antibodies Using Ultra-dense Peptide Arrays,” Molecular & Cellular Proteomics 13:1585-1597 (2014) and Lyamichev, et al., “Stepwise Evolution Improves Identification of Diverse Peptides Binding to a Protein Target,” Nature Scientific Reports 7:12116 (2017), both of which are incorporated herein by reference in their entireties). L-amino acids were synthesized by Orgentis Chemicals GmbH. Custom amino acids were purchased from Lifetein. Cy5™-streptavidin was purchased from GE Healthcare, Blocker™ BSA (10%) in PBS from ThermoFisher, and SecureSeal™ hybridization chambers from Grace Bio-Labs. Final side chain deprotection was performed by incubating the microarray in 60 mM EDT and 25 mM TIPS in 95% TFA (v/v) for 30 min at room temperature. The microarray was then washed twice in methanol for 30 seconds, once in 1×TBST for 1 min, twice in TBS for 30 seconds, and then spun dry in a microcentrifuge equipped with an array holder. […] Here, 2.6 μL biotin-labeled DsbA (1.5 mg/mL, abcam) was incubated on the array in 49 μL binding buffer containing 100 mM HEPES (pH 7.3), 1% BSA, 250 mM NaCl, 20 mM L-glutathione-reduced, and 0.2 mM L-glutathione-oxidized in a hybridization chamber overnight at 4° C. After incubation, arrays were washed in water for 15 seconds placed directly into a streptavidin-Cy5 detection bath. Positive binding to DsbA was determined by the detection of Streptavidin-Cy5. Streptavidin-Cy5 binding to all arrays was performed with 20 μL streptavidin-Cy5 (1 μg/mL) in 30 mL binding buffer containing 10 mM Tris-HCl (pH 7.4), 1% Casein, 0.05% Tween-20 in a 30 mL pap jar for 1 hour at room temperature. After incubation, arrays were washed in 20 mM Tris-HCl (pH 7.8), 0.2 M NaCl, 1% SDS for 30 seconds followed by a 30 seconds wash in water. The arrays were then dried by spinning in a microcentrifuge equipped with an array holder. Data was analyzed by measuring Cy5 fluorescence intensity of the arrays and extracting data, as previously described in Lyamichev, et al. (2017).
To narrow the number of possible 15-mer peptides in both libraries down to approximately 3 million peptides, a calculation was run to select for the maximum diversity of 6mer peptide sequences. Each 15-mer sequence was replicated two times.

biotin-labeled DsbA [2] = target: T1, biotin-labeled DsbA; test: Biacore kinetic analysis of peptide binding to immobilized biotin-labeled DsbA
Description: The discovered and incrementally optimized novel DsbA-binding peptides were subject to kinetic characterization. Kinetic analysis of the interaction between the discovered peptides and DsbA was performed using a Biacore XI00. Biotin-labeled DsbA (1 uM) was immobilized on streptavidin coated chip (GE Healthcare) to a target level of 1,000 response units in HBS-P+. […] Fourteen dilutions of peptide from 5000 nM to 0.6 nM in HBS-P+ were flowed over the DsbA coated chip in triplicate with a contact time of 120 seconds and a dissociation time of 600 seconds. […] All peptides were amidated on the C-terminus.

| Substance | SIGNAL INTENSITY (biotin-labeled DsbA [1]) | koff (biotin-labeled DsbA [2]) [s⁻¹] | kon (biotin-labeled DsbA [2]) [M⁻¹ s⁻¹] |
| --- | --- | --- | --- |
| DFWHGDTCKVTQFDQ-NH2 | 1750 | 0.0271 | 130000 |
| DFWHGEQCKVTQFDQ-NH2 | 4590 | 0.0139 | 259000 |
| DFWHGETCKVTQFDQ-NH2 | 1801 | 0.0185 | 220000 |
| HNWAAQCLKDQAKL-NH2 | 1759 | 0.0448 | 509000 |
| HNWAAQCLNPDQAKL-NH2 | 2640 | 0.0292 | 510000 |
| NDYQYKGQQCLDPKY-NH2 | 3623 | 0.0246 | 515000 |
| PSPWATCDF-NH2 | 82 |  |  |
| SIIGMCYKKDPS-NH2 | 1365 |  |  |
| VIGQCLKN-NH2 | 588 |  |  |
| VILGQCLKQ-NH2 | 965 |  |  |
| VIVGQCLKK-NH2 | 282 |  |  |
| WQYENWAITKWQCVK-NH2 | 1427 |  |  |
| YVYGMCWKDYTDTDK-NH2 | 2114 | 0.0627 | 538000 |
| YVYGMCWKDYTTDK-NH2 | 2297 | 0.057 | 728000 |
